Laboratory results published in PubChem BioAssay AID2060512 (Molecular Pharmacology Branch, DTP, NCI, 2025).

Test system: 186277-243-T-J2-PDC complex spheroid viability
Assay: Anticancer human tumor 186277-243-T-J2-PDC patient-derived colon adenocarcinoma cell line growth inhibition [GQUAD]
Conditions: for IC50: curve of first compound; for viability, T/C: stronger effect = lower value
Summary of the method: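 Viability of tumor cells grown as complex spheroids with endothelial and stromal cells, exposed to drug combinations. Top concentration at or near clinical Cmax (else 10 microM), diluted in half-log increments.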

[1] = second compound 0.0316 µM, first compound 0.0316 µM
[2] = second compound 0.0316 µM, first compound 0.1 µM
[3] = second compound 0.0316 µM, first compound 0.316 µM
[4] = second compound 0.0316 µM, first compound 1 µM
[5] = second compound 0.0316 µM, first compound 3.16 µM
[6] = second compound 0.0316 µM, first compound 10 µM
[7] = second compound 0.1 µM, first compound 0.0316 µM
[8] = second compound 0.1 µM, first compound 0.1 µM
[9] = second compound 0.1 µM, first compound 0.316 µM
[10] = second compound 0.1 µM, first compound 1 µM
[11] = second compound 0.1 µM, first compound 3.16 µM
[12] = second compound 0.1 µM, first compound 10 µM
[13] = second compound 0.316 µM, first compound 0.0316 µM
[14] = second compound 0.316 µM, first compound 0.1 µM
[15] = second compound 0.316 µM, first compound 0.316 µM
[16] = second compound 0.316 µM, first compound 1 µM
[17] = second compound 0.316 µM, first compound 3.16 µM
[18] = second compound 0.316 µM, first compound 10 µM
[19] = second compound 1 µM, first compound 0.0316 µM
[20] = second compound 1 µM, first compound 0.1 µM
[21] = second compound 1 µM, first compound 0.316 µM
[22] = second compound 1 µM, first compound 1 µM
[23] = second compound 1 µM, first compound 3.16 µM
[24] = second compound 1 µM, first compound 10 µM
[25] = second compound 3.16 µM, first compound 0.0316 µM
[26] = second compound 3.16 µM, first compound 0.1 µM
[27] = second compound 3.16 µM, first compound 0.316 µM
[28] = second compound 3.16 µM, first compound 1 µM
[29] = second compound 3.16 µM, first compound 3.16 µM
[30] = second compound 3.16 µM, first compound 10 µM
[31] = second compound 10 µM, first compound 0.0316 µM
[32] = second compound 10 µM, first compound 0.1 µM
[33] = second compound 10 µM, first compound 0.316 µM
[34] = second compound 10 µM, first compound 1 µM
[35] = second compound 10 µM, first compound 3.16 µM
[36] = second compound 10 µM, first compound 10 µM
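For viability, T/C in this document: 100% = DMSO vehicle control viability.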

Question: What does the source list for `C#Cc1c(F)ccc2cc(O)cc(-c3ncc4c(N5CC6CCC(C5)N6)nc(OCC56CCCN5CC(F)C6)nc4c3F)c12` (stereo unspecified) + CN(C)c1ccc(Nc2c3ccc(NC(=O)CCN4CCCC4)cc3nc3cc(NC(=O)CCN4CCCC4)ccc23)cc1?
Answer: IC50 (second compound 0.0316 µM): 89.9 nM; IC50 (second compound 0.1 µM): 83.6 nM; IC50 (second compound 0.316 µM): 99.7 nM; IC50 (second compound 1 µM): 84.2 nM; IC50 (second compound 3.16 µM): 135 nM; IC50 (second compound 10 µM): 77 nM; viability, T/C [1]: 82%; viability, T/C [2]: 47.4%; viability, T/C [3]: 21.6%; viability, T/C [4]: 16.9%; viability, T/C [5]: 6.89%; viability, T/C [6]: 7.82%; viability, T/C [7]: 74.2%; viability, T/C [8]: 45.7%; viability, T/C [9]: 18.7%; viability, T/C [10]: 11.1%; viability, T/C [11]: 6.45%; viability, T/C [12]: 7.02%; viability, T/C [13]: 77%; viability, T/C [14]: 50.4%; viability, T/C [15]: 19.8%; viability, T/C [16]: 14.4%; viability, T/C [17]: 8.31%; viability, T/C [18]: 7.51%; viability, T/C [19]: 74.6%; viability, T/C [20]: 46.6%; viability, T/C [21]: 21.3%; viability, T/C [22]: 16.1%; viability, T/C [23]: 14.3%; viability, T/C [24]: 6.27%; viability, T/C [25]: 73.9%; viability, T/C [26]: 59.6%; viability, T/C [27]: 22.9%; viability, T/C [28]: 8.92%; viability, T/C [29]: 8.54%; viability, T/C [30]: 5.1%; viability, T/C [31]: 74.3%; viability, T/C [32]: 42.1%; viability, T/C [33]: 24.2%; viability, T/C [34]: 12.5%; viability, T/C [35]: 6.96%; viability, T/C [36]: 1.49%

Question: What does the source list for `C=CCn1c(=O)c2cnc(Nc3ccc(N4CCN(C)CC4)cc3)nc2n1-c1cccc(C(C)(C)O)n1` + CN(C)c1ccc(Nc2c3ccc(NC(=O)CCN4CCCC4)cc3nc3cc(NC(=O)CCN4CCCC4)ccc23)cc1?
Answer: IC50 (second compound 0.0316 µM): 174 nM; IC50 (second compound 0.1 µM): 175 nM; IC50 (second compound 0.316 µM): 200 nM; IC50 (second compound 1 µM): 189 nM; IC50 (second compound 3.16 µM): 179 nM; IC50 (second compound 10 µM): 184 nM; viability, T/C [1]: 107%; viability, T/C [2]: 81.7%; viability, T/C [3]: 15.5%; viability, T/C [4]: 10.1%; viability, T/C [5]: 9.78%; viability, T/C [6]: 13%; viability, T/C [7]: 106%; viability, T/C [8]: 83.8%; viability, T/C [9]: 14.5%; viability, T/C [10]: 8.74%; viability, T/C [11]: 8.46%; viability, T/C [12]: 11.9%; viability, T/C [13]: 96.8%; viability, T/C [14]: 94.4%; viability, T/C [15]: 20.9%; viability, T/C [16]: 8.7%; viability, T/C [17]: 9.7%; viability, T/C [18]: 12.2%; viability, T/C [19]: 93.1%; viability, T/C [20]: 99.1%; viability, T/C [21]: 13%; viability, T/C [22]: 9.53%; viability, T/C [23]: 9.39%; viability, T/C [24]: 12.5%; viability, T/C [25]: 110%; viability, T/C [26]: 85.3%; viability, T/C [27]: 15.4%; viability, T/C [28]: 10.1%; viability, T/C [29]: 9.74%; viability, T/C [30]: 14.9%; viability, T/C [31]: 101%; viability, T/C [32]: 88.6%; viability, T/C [33]: 16%; viability, T/C [34]: 10.1%; viability, T/C [35]: 8.2%; viability, T/C [36]: 12.7%

Question: What does the source list for `CC(C)n1c(=O)n(C)c2cnc3cc(F)c(-c4ccc(OCCCN5CCCCC5)nc4)cc3c21` + CN(C)c1ccc(Nc2c3ccc(NC(=O)CCN4CCCC4)cc3nc3cc(NC(=O)CCN4CCCC4)ccc23)cc1?
Answer: IC50 (second compound 0.0316 µM): > 10000 nM; IC50 (second compound 0.1 µM): > 10000 nM; IC50 (second compound 0.316 µM): > 10000 nM; IC50 (second compound 1 µM): > 10000 nM; IC50 (second compound 3.16 µM): > 10000 nM; IC50 (second compound 10 µM): 6100 nM; viability, T/C [1]: 94.4%; viability, T/C [2]: 108%; viability, T/C [3]: 91.8%; viability, T/C [4]: 98.1%; viability, T/C [5]: 109%; viability, T/C [6]: 97.9%; viability, T/C [7]: 110%; viability, T/C [8]: 105%; viability, T/C [9]: 102%; viability, T/C [10]: 110%; viability, T/C [11]: 114%; viability, T/C [12]: 95.3%; viability, T/C [13]: 97.9%; viability, T/C [14]: 115%; viability, T/C [15]: 103%; viability, T/C [16]: 98.3%; viability, T/C [17]: 122%; viability, T/C [18]: 93.7%; viability, T/C [19]: 132%; viability, T/C [20]: 87%; viability, T/C [21]: 97.6%; viability, T/C [22]: 100%; viability, T/C [23]: 111%; viability, T/C [24]: 86.1%; viability, T/C [25]: 101%; viability, T/C [26]: 84.9%; viability, T/C [27]: 97.2%; viability, T/C [28]: 118%; viability, T/C [29]: 119%; viability, T/C [30]: 84.8%; viability, T/C [31]: 118%; viability, T/C [32]: 96.8%; viability, T/C [33]: 112%; viability, T/C [34]: 88.8%; viability, T/C [35]: 66.4%; viability, T/C [36]: 37.8%
